One test has as its target T1, MsMDH ([Mannheimia] succiniciproducens, UniProt Q65T37).
T1 construct: gene mdh; full length, C-terminal 6xHis (pET30a), expressed in E. coli BL21(DE3), Ni-NTA, ion exchange and size exclusion
T1 sequence (Q65T37 1-312): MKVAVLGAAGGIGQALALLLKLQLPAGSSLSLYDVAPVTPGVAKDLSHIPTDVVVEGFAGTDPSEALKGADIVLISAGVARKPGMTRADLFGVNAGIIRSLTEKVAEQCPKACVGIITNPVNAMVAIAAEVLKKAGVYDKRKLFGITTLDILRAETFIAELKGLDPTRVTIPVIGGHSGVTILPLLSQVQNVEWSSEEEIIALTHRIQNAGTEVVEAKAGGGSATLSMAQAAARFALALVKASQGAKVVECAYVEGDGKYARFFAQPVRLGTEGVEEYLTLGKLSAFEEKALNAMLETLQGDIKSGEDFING
The test is described as follows: NADH oxidation at […] nm; modified Briggs-Haldane fit. The class given is biochemical. As to conditions: pH 7.0, 0.1 M Tris-HCl, NADH co-substrate, room temperature; uncompetitive substrate inhibition.

The next test addresses T2, CgMDH (Corynebacterium glutamicum, UniProt Q8NN33).
T2 construct: gene mdh; full length, C-terminal 6xHis (pET30a), expressed in E. coli BL21(DE3), Ni-NTA, ion exchange and size exclusion
The test is described as above. The format is biochemical. The conditions noted are these: pH 7.0, 0.1 M Tris-HCl, NADH co-substrate, room temperature; substrate inhibition.

The values that follow come from article PMC7181634, “Enhanced succinic acid production by Mannheimia employing optimal malate dehydrogenase” (Nature Communications, 2020).

T2 sequence (Q8NN33 whole entry): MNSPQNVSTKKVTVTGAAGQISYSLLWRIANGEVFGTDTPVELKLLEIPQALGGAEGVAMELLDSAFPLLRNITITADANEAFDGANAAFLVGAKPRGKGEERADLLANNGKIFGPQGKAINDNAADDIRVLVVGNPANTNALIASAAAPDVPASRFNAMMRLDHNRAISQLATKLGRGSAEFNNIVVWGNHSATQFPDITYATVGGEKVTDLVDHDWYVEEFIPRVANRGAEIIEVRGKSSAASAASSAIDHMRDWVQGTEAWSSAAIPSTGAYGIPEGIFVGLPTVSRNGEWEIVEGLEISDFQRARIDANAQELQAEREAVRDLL

As for `O=C(O)CC(=O)C(=O)O` [oxaloacetate], on MsMDH, the “MsMDH / ki” value was 47.3 ± 22.1 µM. Besides, the “CgMDH / ki” value on CgMDH came out at 500.0 ± 114.1 µM.
